The target in experiment [1] is T1, A2 receptor of the coronary artery (Cavia porcellus, UniProt P46616).
T1 construct: perfused hearts from female Sprague-Dawley guinea pigs in an isolated Langendorff heart preparation; from tissue; host or cells: isolated perfused guinea pig heart (Langendorff), coronary vasculature
The experiment can be described thus: Coronary blood flow increase (A2 effect), isolated perfused Langendorff heart. On the set-up: species or system guinea pig (female Sprague-Dawley guinea pigs). The conditions noted are these: for Selectivity (A1/A2): ratio of SQ prolongation ED50 (A1) to coronary flow EC50 (A2); for affinity and selectivity for A2 adenosine receptors (in words): qualitative statement. The protocol: (§1) Assays of the cardiovascular potency of the above compounds at the A1 receptors of the SA node and at the A2 receptor of the coronary artery employed perfused hearts from female Sprague-Dawley guinea pigs in an isolated Langendorff heart preparation. An assay consists of an infusion of a spectophotometrically standardized solution of test compound directly into the aortic cannula at rates increasing stepwise every 5 minutes. Collection of the total cardiac effluent during the first half of each infusion period provides a measure of coronary flow (A2 effect). The concentration of test compound required to produce a half-maximal increase in coronary flow is determined. Registration of the ECG assesses the effect of the test compound on SA node (stimulus to Q interval, A1 effect). The concentration of test compound required to produce a half-maximal prolongation of stimulus to Q interval is determined. […] The ratio of A1 and A2 effects of test compounds are calculated to provide the selectivity ratio.

The target in experiment [2] is T2, A1 receptors of the SA node (Cavia porcellus, UniProt P47745).
T2 construct: perfused hearts from female Sprague-Dawley guinea pigs in an isolated Langendorff heart preparation; from tissue; host or cells: isolated perfused guinea pig heart (Langendorff), nodal/conducting tissue
T2 sequence (P47745 1-326): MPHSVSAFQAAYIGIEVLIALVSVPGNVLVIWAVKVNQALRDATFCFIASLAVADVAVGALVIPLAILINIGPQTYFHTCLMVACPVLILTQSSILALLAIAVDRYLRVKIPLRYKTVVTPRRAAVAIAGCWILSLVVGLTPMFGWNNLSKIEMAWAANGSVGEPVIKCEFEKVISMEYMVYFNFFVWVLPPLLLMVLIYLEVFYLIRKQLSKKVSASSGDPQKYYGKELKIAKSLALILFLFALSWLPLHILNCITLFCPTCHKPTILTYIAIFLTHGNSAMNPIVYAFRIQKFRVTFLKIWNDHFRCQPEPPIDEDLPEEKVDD
The experiment can be described thus: SQ (stimulus to Q) interval prolongation (A1 effect), isolated perfused Langendorff heart. Also on record: species or system guinea pig (female Sprague-Dawley guinea pigs). Conditions: concentration for half-maximal prolongation of stimulus to Q interval; infusion into aortic cannula, stepwise every 5 minutes; read-out: SQ Prolongation (A1) ED50. The method, then: as §1

T1 sequence (P46616 whole entry, the tested form may be a part): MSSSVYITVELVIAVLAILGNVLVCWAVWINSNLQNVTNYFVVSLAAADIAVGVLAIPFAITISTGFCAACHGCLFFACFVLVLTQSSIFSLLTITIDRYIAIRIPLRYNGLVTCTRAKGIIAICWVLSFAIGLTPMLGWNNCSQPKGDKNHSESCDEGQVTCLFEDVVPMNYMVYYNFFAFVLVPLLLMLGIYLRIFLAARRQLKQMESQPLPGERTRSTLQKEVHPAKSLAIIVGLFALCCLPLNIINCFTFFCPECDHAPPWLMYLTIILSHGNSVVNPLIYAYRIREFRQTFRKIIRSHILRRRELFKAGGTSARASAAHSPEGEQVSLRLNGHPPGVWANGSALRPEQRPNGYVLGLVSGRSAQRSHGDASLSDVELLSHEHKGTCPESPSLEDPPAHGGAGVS

For `COc1cccc(CCOc2nc(N)c3ncn([C@@H]4O[C@H](CO)[C@@H](O)[C@H]4O)c3n2)c1` [Example 9, 2-[2-(3-methoxyphenyl)ethoxy]adenosine], in experiment [1], the “Selectivity (A1/A2)” value worked out at 6238. For the same compound, the EC50 in experiment [2] worked out at 16.2 µM. `Nc1nc(OCCCCc2ccccc2)nc2c1ncn2[C@@H]1O[C@H](CO)[C@@H](O)[C@H]1O` [Example 20, 2-(4-phenyl-1-butoxy)adenosine]: the “Selectivity (A1/A2)” value in experiment [1] is on record as 743. For the compound `Nc1nc(OC2CCCC2)nc2c1ncn2[C@@H]1O[C@H](CO)[C@@H](O)[C@H]1O` [Example 3, 2-Cyclopentyloxyadenosine], the “Selectivity (A1/A2)” value in experiment [1] is 866.

Consider `COc1cc(CCOc2nc(N)c3ncn([C@@H]4O[C@H](CO)[C@@H](O)[C@H]4O)c3n2)cc(OC)c1OC` [Example 12, 2-[2-(3,4,5-trimethoxyphenyl)ethoxy]adenosine], for which, in experiment [1], the “Selectivity (A1/A2)” value stood at 2151. The EC50 in experiment [2] was found to be 47.3 µM. The matching figures for `Nc1nc(OCCc2cccs2)nc2c1ncn2[C@@H]1O[C@H](CO)[C@@H](O)[C@H]1O` [Example 13, 2-[2-(2-thienyl)ethoxy]adenosine]: 3212 and 11.9 µM. Regarding `Nc1nc(OCCc2ccc3ccccc3c2)nc2c1ncn2[C@@H]1O[C@H](CO)[C@@H](O)[C@H]1O` [Example 24, 2-[2-(2-naphthyl)ethoxy]adenosine], the EC50 in experiment [2] is 11.4 µM. With `Nc1nc(OCc2ccccc2)nc2c1ncn2[C@@H]1O[C@H](CO)[C@@H](O)[C@H]1O` [Example 6, 2-benzyloxyadenosine], in experiment [1], the “Selectivity (A1/A2)” value worked out at 15. In addition, the EC50 in experiment [2] came out at 6.31 µM. Turning to `COc1ccccc1CCOc1nc(N)c2ncn([C@@H]3O[C@H](CO)[C@@H](O)[C@H]3O)c2n1` [Example 8, 2-[2-(2-methoxyphenyl)ethoxy]adenosine], the “Selectivity (A1/A2)” value in experiment [1] worked out at 1109. Besides, the EC50 in experiment [2] amounted to 35.5 µM. For the compound `COc1ccc(CCOc2nc(N)c3ncn([C@@H]4O[C@H](CO)[C@@H](O)[C@H]4O)c3n2)cc1` [Example 10, 2-[2-(4-methoxyphenyl)ethoxy]adenosine], in experiment [1], the “affinity and selectivity for A2 adenosine receptors (in words)” value (from here on “affinity and selectivity”) is “high affinity and selectivity”; the “Selectivity (A1/A2)” value is on record as 14089. Moreover, the EC50 in experiment [2] stood at 19.7 µM.

With `Nc1nc(OCCCc2ccccc2)nc2c1ncn2[C@@H]1O[C@H](CO)[C@@H](O)[C@H]1O` [Example 1, 2-(3-phenyl-1-propoxy)adenosine], the “Selectivity (A1/A2)” value in experiment [1] is 326. In addition, the EC50 in experiment [2] came out at 20 µM.

In the case of `Nc1nc(OCCc2ccccc2)nc2c1ncn2[C@@H]1O[C@H](CO)[C@@H](O)[C@H]1O` [Example 7, 2-(2-phenylethoxy)adenosine], in experiment [1], the “Selectivity (A1/A2)” value was 7126. For the same compound, the EC50 in experiment [2] was 20 µM.

Turning to `CC(COc1nc(N)c2ncn([C@@H]3O[C@H](CO)[C@@H](O)[C@H]3O)c2n1)c1ccccc1` (stereo partly drawn) [Example 17, 2-(2-phenyl-1-propoxy)adenosine], the “Selectivity (A1/A2)” value in experiment [1] turned out to be 5899. As to `Nc1nc(OCCc2ccc(F)cc2)nc2c1ncn2[C@@H]1O[C@H](CO)[C@@H](O)[C@H]1O` [Example 2, 2-[2-(4-fluorophenyl)ethoxy]adenosine], in experiment [1], the “affinity and selectivity” value is “high affinity and selectivity”; the “Selectivity (A1/A2)” value is listed as 29432. Further, in experiment [2], the EC50 stood at 25.6 µM.

As for `Nc1nc(OCCc2cccc3ccccc23)nc2c1ncn2[C@@H]1O[C@H](CO)[C@@H](O)[C@H]1O` [Example 15, 2-[2-(1-naphthyl)ethoxy]adenosine], the EC50 in experiment [2] is 8.41 µM. Regarding `Cc1ccccc1CCOc1nc(N)c2ncn([C@@H]3O[C@H](CO)[C@@H](O)[C@H]3O)c2n1` [Example 11, 2-[2-(2-methylphenyl)ethoxy]adenosine], the “Selectivity (A1/A2)” value in experiment [1] is 6610. In addition, the EC50 in experiment [2] is 25.1 µM. Consider `Nc1nc(OC2CCCCC2)nc2c1ncn2[C@@H]1O[C@H](CO)[C@@H](O)[C@H]1O` [Example 4, 2-Cyclohexyloxyadenosine], for which the “Selectivity (A1/A2)” value in experiment [1] is reported as 152. With `Nc1nc(OCCCCCc2ccccc2)nc2c1ncn2[C@@H]1O[C@H](CO)[C@@H](O)[C@H]1O` [Example 21, 2-(5-phenyl-1-pentoxy)adenosine], the EC50 in experiment [2] is 4.6 µM. As to `CCNC(=O)[C@H]1O[C@@H](n2cnc3c(N)nc(OCCc4ccccc4)nc32)[C@H](O)[C@@H]1O` [Example 22, 2-(2-phenyl)ethoxy-5'-N-ethylcarboxamidoadenosine], in experiment [1], the “affinity and selectivity” value is “high affinity and selectivity”; the “Selectivity (A1/A2)” value is 11509. Turning to `CC[C@@H](COc1nc(N)c2ncn([C@@H]3O[C@H](CO)[C@@H](O)[C@H]3O)c2n1)c1ccccc1` [Example 18], the EC50 in experiment [1] (concentration for half-maximal increase in coronary flow, infusion into aortic cannula, stepwise every 5 minutes) amounted to 0.374 µM; in experiment [2], 18.8 µM. Moreover, in experiment [1], the “Selectivity (A1/A2)” value amounted to 50.

As for `Nc1nc(OCCc2c[nH]c3ccccc23)nc2c1ncn2[C@@H]1O[C@H](CO)[C@@H](O)[C@H]1O` [Example 16, 2-[2-(3-indolyl)ethoxy]adenosine], the EC50 in experiment [2] came out at 14.1 µM.

As for `CC[C@H](COc1nc(N)c2ncn([C@@H]3O[C@H](CO)[C@@H](O)[C@H]3O)c2n1)c1ccccc1` [Example 19, 2-[(2S)-phenyl-1-butoxy]adenosine], the “Selectivity (A1/A2)” value in experiment [1] came to 872.

Values taken from patent publication USRE36494E, “2-aralkoxy and 2-alkoxy adenosine derivatives as coronary vasodilators and antihypertensive agents” (Discovery Therapeutics, Inc., priority 1993, dated 2000).
